Data set [1] has as its system human myeloma cells MM.1S. In words: MM.1S cell viability, CCK-8 method. Format: cell-based. Conditions: for IC50: 72 h treatment, CCK-8; for inhibitory activity against the MM.1S cell line (in words): compared with positive (+)-JQ1. How it is done: The MM.1S cell line was tested for cell viability. The test methods were as follows: human myeloma cells MM.1S were treated with compound for 72 h, and the proliferation inhibition effect and degree of the compound were detected by CCK-8 method.
A general note: Tetrazolium dyes change colour on reduction, which living cells bring about.

The target of a further data set is BRD4 (I) (Homo sapiens (Human), UniProt O60885). Kind of data set: Fluorescence anisotropy (FA) binding test on BRD4 (I). To be noted: BRD4 (I) 10 nM, fluorescent (+)-JQ1 substrate 5 nM, read-out: BRD4 (1) IC50. How it is done: The binding activity of the compound to BRD4 (I) was tested using a fluorescence anisotropy (FA) method. The principle of FA test is to calculate and analyze the fluorescence polarization values in the horizontal and vertical directions by detecting the change of molecular weight before and after the interaction of fluorescein-labeled small molecules with other molecules. If the equilibrium of the binding between the fluorescently labeled small molecule and macromolecule is established, it will move slowly when excited, and the measured fluorescence polarization value will increase. If the binding between the fluorescently labeled small molecule and the macromolecule is replaced by another ligand, its rotation or flipping speed in the free state will be faster, and the emitted light will be depolarized relative to the plane of the excitation light, and the measured polarized light value will decrease to calculate the fluorescence anisotropy of the sample.
Expression and purification of the BRD4(I) recognition domain: colonies of newly transformed plasmid DNA from E. coli BL21(DE3)-condon plus-RIL cells were cultivated in 50 mL of Terrific Broth medium containing 50 μg/mL kanamycin and 34 μg/mL chloramphenicol at 37° C. overnight (starting culture). The starting culture was then diluted 100-fold in 1 L of fresh TB medium and the cells were grown at 37° C. to an optical density of about 0.8 at OD600 and then the temperature was lowered to 16° C. When the system was equilibrated at 16° C., the optical density at OD600 was approximately 1.2, and protein expression was induced with 0.2 mmol of isopropyl-β-D-thiogalactopyranoside (IPTG) overnight at 16° C. Bacteria were harvested by centrifugation (4000×g, 20 minutes, 4° C.) and stored as a pellet at −80° C. The cells expressing His 6-tagged protein was resuspend in lysis buffer [50 mmol 4-hydroxyethylpiperazineethanesulfonic acid (HEPES), 25° C., pH 7.5, 500 mmol NaCl, 10 mmol imidazole, 5% glycerol and freshly added 0.5 mmol of tris(2-carboxyethyl)phosphine hydrochloride (TCEP) and 1 mmol of phenylmethanesulfonyl fluoride (PMSF)] and lysed at 4° C. using JN 3000PLUS high pressure homogenizer (JNBIO-Guangzhou, China). The lysate was clarified by centrifugation (12,000×g for 1 hour at 4° C.) and applied to a nickel-nitriloacetate agarose column. The column was washed once with 50 mL of wash buffer containing 30 mmol of imidazole. The protein was eluted using imidazole in an elution buffer in a stepwise elution (100-250 mmol imidazole in 50 mmol HEPES, 25° C., pH 7.5, 500 mmol NaCl, 5% glycerol). All fractions were collected and monitored by SDS-polyacrylamide gel electrophoresis (Bio-Rad Criterion TM Precast Gels, 4-12% Bis-Tris, 1.0 mm, from Bio-Rad, CA). After 1 mmol of dithiothreitol (DTT) was added, the eluted proteins were treated with tobacco […] virus (TEV) protease overnight at 4° C. to remove the His6 tag. The protein was concentrated and further purified by size exclusion chromatography on a Superdex 75 16/60 HiLoad gel filtration column. The samples were monitored by SDS-polyacrylamide gel electrophoresis and concentrated to 8-10 mg/mL with gel filtration buffer, 10 mmol Hepes pH 7.5, 500 mM NaCl, 1 mmol DTT, and used for protein binding assays and crystallization.
The fluorogenic substrate was (+)-JQ1 linked to a fluorescent molecule and the working concentration was 5 nM. BRD4 (I) protein had 10 nM of working concentration and the total reaction system was 40 μL. The buffer was 50 mM 4-hydroxyethylpiperazineethanesulfonic acid (HEPES) pH 7.4, 150 mM NaCl, 0.5 mM 3[(3-cholamidopropyl)dimethylammonio]propanesulfonate (CHAPS). […] The final concentration of DMSO was chosen to be 0.2%, taking into account the solubility of the compound and the effect of DMSO on the assay. All measurements were made under these conditions. […]
A general note: Fluorescence polarisation rises when a labelled molecule tumbles more slowly, as on binding a larger partner.

The next data set has as its system CYP enzyme. In words: Mechanistic inhibition test (TDI test). Format: in vitro ADME. Conditions: human liver microsomes 0.2 mg/ml; mechanism inhibition if kobs greater than 200. Here is the method: The system which was 200 μl of human liver microsomes (final concentration: 0.2 mg/ml) was used for mechanistic inhibition incubation. The system contained 10 μl compound, mixed positive inhibitor (Troleandomycin 10 μl, Paroxetine 10 μl, Tienilic acid 10 μM, Furafylline 10 μl) or 10 μl negative control PRO. After NADPH (final concentration: 1 mM) or PBS was added, the system was incubated for 0 min, 5 min, 10 min and 30 min, then NADPH (final concentration: 1 mM) and mixed probe substrate (Midazolam 5 μM, Testosterone 50 μl, Dextromethophan 5 μM, Diclofenac 10 μl, Phenacetin 5 0 μM, S-(+)-mephenytoin 50 μl) were added and incubated for 10 min. Then the reaction was stopped. The test for positive inhibitor CYP2C19 was carried out alone, the inhibitor S-(+)-fluoxetine was 100 μM. The enzyme activity was calculated by measuring the relative production amount of metabolite. kobs was calculated.
(§1) HLM Clint (μl/min/mg) refers to the clearance rate of compounds in human liver microsomes having a unit of μl/min/mg; mLM Clint (μl/min/mg) refers to the clearance rate of compounds in mouse liver microsomes having a unit of μl/min/mg; HLM t1/2 (min) refers to the half-life of the compound in human liver microsomes having a unit of minutes; mLM t1/2 (min) refers to the half-life of the compound in mouse liver microsomes having a unit of minutes. TDI means that the mechanism inhibition test of compounds on CYP enzyme evaluates whether the compound has time-dependent inhibition of the enzyme.

The next data set addresses CYP2C19 (Homo sapiens (Human), UniProt P33261). Kind of data set: Direct inhibition test (DI test), CYP 2C19. Format: in vitro ADME. To be noted: human liver microsomes 0.2 mg/ml, read-out: Direct inhibition rate (%) 2C19. How it is done:
(§2) The system which was 100 μl of human liver microsomes (final concentration: 0.2 mg/ml) was used for direct inhibition incubation. The system contained NADPH (final concentration: 1 mM), 10 μl compound, positive inhibitor cocktail (ketoconazole, 10 μl, quinidine 10 μl, sulfaphenazole 100 μl, naphthoflavone 10 μl, tranylcypromine 1000 μl), negative control 10 μl DMSO and mixed probe substrate (midazolam 10 μl, testosterone 100 μl, dextromethorphan 10 μl, diclofenac 20 μl, phenacetin 100 μl, mephenytoin 100 μl). The reaction was stopped after the system was incubated for 20 min. The relative activity of the enzyme was calculated by measuring the relative amount of production of the metabolite.
For orientation: Microsomes from liver hold many membrane-bound enzymes, among them those of drug oxidation.

The next data set has as its target CYP2C9 (Homo sapiens (Human), UniProt P11712). Kind of data set: Direct inhibition test (DI test), CYP 2C9. Format: in vitro ADME. To be noted: human liver microsomes 0.2 mg/ml, read-out: Direct inhibition rate (%) 2C9. Here is the method: as §2
Another data set deals with CYP2D6 (Homo sapiens (Human), UniProt P10635). Kind of data set: Direct inhibition test (DI test), CYP 2D6. Conditions: human liver microsomes 0.2 mg/ml, read-out: Direct inhibition rate (%) 2D6. Format: in vitro ADME. How it is done:
as §2

The nature of data set [2]: Metabolic stability in human liver microsomes. Format: in vitro ADME. To be noted: human liver microsomes 0.5 mg/ml, 1 μM compound, NADPH. Here is the method: The system which was 150 μl of human liver microsomes (final concentration: 0.5 mg/ml) was used for metabolic stability incubation. The system contained reduced coenzyme II (NADPH) (final concentration: 1 mM) and 1 μM compound, positive control or negative control. The reaction was terminated with acetonitrile containing (imiprozine, batch number: 3221; tinidazole, given) at 0 min, 5 min, 10 min, and 30 min, respectively. The mixture was vortexed for 10 min, centrifuged at 15000 rpm for 10 min, and 50 μl of the supernatant was injected into a 96-well plate. The metabolic stability of the compound was calculated by measuring the relative reduction in the original medicament.
as §1

The nature of data set [3]: Metabolic stability in mouse liver microsomes. The format is in vitro ADME.
The target in the next data set is 3A4 (Homo sapiens (Human), UniProt P08684). Kind of data set: Direct inhibition test (DI test), CYP 3A4. Conditions: human liver microsomes 0.2 mg/ml, 20 min; for Direct inhibition rate (%) 3A4, first value: first of two values a/b (two 3A4 probes midazolam, testosterone; assignment not given); for Direct inhibition rate (%) 3A4, second value: second of two values a/b (two 3A4 probes midazolam, testosterone; assignment not given). Format: in vitro ADME. Here is the method:
as §2

3A4, sequence (P08684 whole entry): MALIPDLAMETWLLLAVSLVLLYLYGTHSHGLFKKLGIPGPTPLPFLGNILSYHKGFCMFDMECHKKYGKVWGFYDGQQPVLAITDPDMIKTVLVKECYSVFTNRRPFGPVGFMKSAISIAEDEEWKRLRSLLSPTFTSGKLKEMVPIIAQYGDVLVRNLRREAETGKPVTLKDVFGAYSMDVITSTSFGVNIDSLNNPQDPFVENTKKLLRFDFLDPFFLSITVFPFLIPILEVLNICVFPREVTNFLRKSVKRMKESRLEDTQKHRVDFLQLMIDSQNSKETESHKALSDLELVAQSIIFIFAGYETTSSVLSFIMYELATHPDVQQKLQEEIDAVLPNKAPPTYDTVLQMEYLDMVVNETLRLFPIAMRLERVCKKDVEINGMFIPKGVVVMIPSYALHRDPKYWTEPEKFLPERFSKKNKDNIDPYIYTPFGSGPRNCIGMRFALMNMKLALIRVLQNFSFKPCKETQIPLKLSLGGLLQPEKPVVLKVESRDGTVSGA
CYP2C19, sequence (P33261 whole entry): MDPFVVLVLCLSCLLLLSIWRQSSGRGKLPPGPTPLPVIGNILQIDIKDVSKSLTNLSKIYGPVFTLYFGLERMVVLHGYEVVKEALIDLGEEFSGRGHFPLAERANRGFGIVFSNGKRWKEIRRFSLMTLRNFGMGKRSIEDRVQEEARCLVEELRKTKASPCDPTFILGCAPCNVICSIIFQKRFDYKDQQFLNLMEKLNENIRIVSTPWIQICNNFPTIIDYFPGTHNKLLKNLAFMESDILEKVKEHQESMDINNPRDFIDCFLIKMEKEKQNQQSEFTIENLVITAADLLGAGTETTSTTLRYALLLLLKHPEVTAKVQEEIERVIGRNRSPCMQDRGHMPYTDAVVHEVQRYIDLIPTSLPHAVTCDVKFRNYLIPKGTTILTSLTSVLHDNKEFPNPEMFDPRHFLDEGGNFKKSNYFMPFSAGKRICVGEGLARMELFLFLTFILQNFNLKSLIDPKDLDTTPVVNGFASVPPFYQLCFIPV
CYP2C9, sequence (P11712 whole entry): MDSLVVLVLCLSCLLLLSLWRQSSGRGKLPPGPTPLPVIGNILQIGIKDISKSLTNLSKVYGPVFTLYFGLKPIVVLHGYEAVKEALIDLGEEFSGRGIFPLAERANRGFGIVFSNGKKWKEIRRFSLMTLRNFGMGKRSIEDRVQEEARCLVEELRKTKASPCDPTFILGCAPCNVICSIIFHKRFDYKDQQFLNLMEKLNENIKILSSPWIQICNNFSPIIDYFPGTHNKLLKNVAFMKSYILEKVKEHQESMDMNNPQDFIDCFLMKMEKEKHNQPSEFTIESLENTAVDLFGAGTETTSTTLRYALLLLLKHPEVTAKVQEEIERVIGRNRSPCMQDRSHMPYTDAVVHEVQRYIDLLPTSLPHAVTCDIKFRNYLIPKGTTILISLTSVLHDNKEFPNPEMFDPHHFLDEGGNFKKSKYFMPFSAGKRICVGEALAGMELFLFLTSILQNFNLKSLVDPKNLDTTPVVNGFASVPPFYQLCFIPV
CYP2D6, sequence (P10635 whole entry): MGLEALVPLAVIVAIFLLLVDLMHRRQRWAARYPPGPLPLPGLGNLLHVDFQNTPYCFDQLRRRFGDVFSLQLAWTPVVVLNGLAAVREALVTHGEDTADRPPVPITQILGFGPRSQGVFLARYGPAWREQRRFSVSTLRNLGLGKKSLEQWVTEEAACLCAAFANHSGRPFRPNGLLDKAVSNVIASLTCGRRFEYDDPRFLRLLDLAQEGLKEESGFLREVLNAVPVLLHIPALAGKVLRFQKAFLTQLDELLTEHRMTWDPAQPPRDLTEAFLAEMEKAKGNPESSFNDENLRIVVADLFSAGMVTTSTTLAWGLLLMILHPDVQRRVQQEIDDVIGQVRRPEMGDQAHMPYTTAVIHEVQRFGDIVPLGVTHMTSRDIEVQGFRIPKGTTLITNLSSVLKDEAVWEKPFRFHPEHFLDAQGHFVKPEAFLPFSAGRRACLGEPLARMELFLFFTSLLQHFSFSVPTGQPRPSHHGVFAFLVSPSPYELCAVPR

The IC50 is the concentration that inhibits the measured activity by half. Regarding `Cc1ccc(-n2nc(C(=O)N3CC4CCC(C3)N4C)nc2-c2ccc3c(c2)N(C2CCCC2)[C@H](C)C(=O)N3C)cc1` [Example 14], the concentration for half-maximal inhibition (IC50) in data set [1] (Homo sapiens, MM1.S) amounted to 10.7 ± 1.71 nM; at BRD4 (I) it was 4.5 nM. Moreover, the “inhibitory activity against the MM.1S cell line (in words)” value (from here on “inhibitory activity”) in data set [1] was “better inhibitory activity against the MM.1S cell line than the positive (+)-JQ1”.

For the compound `Cc1ccc(-n2nc(C(=O)N3CCN(C)CC3)nc2-c2ccc3c(c2)N(C2CCCC2)[C@H](C)C(=O)N3C)cc1F` [Example 16], the IC50 came to 29.4 ± 9.3 nM in data set [1] (Homo sapiens, MM1.S) and 4.06 nM on BRD4 (I).

Turning to `Cc1ccc(-n2nc(C(=O)N3C4CCC3CN(C)C4)nc2-c2ccc3c(c2)N(C2CCCC2)[C@H](C)C(=O)N3C)cc1` [Example 18], the IC50 in [1] (Homo sapiens, MM1.S) is 10.22 ± 0.02 nM; on BRD4 (I), 6.5 nM. For the same compound, the “inhibitory activity” value in [1] is reported as “better inhibitory activity against the MM.1S cell line than the positive (+)-JQ1”.

For orientation: inhibition means the share of the control response that was lost under treatment. With `Cc1ccc(-n2nc(C(=O)N3C[C@@H](C)N[C@@H](C)C3)cc2-c2ccc3c(c2)N(C2CCCC2)[C@H](C)C(=O)N3C)cc1` [Example 27], in the data set on CYP enzyme, the TDI entry is “no”. Besides, the results for the inhibition at 20 min at CYP2C19, at CYP2C9 and on CYP2D6 were 19%, 27% and 6%, respectively. Also, the IC50 on BRD4 (I) came to 4.9 nM. The microsomal CLint at 1 μM was determined as 55 µL/min/mg in data set [2] (read-out: HLM Clint) and 6 µL/min/mg in [3] (read-out: mLM Clint). The results for the half-life at 1 μM in data set [2] (read-out: HLM t1/2) and in [3] (read-out: half-lives in mouse liver microsomes) were 0.417 h and 4.13 h, respectively. Further, on 3A4, the “Direct inhibition rate (%) 3A4, first value” is given as 24%. Also, on 3A4, the “Direct inhibition rate (%) 3A4, second value” came out at 47%.

Turning to `Cc1ccc(-n2nc(C(=O)N3CCN(C)CC3)nc2-c2ccc3c(c2)N(C2CC2)C(C)C(=O)N3C)cc1` (centres unmarked) [Example 33], the TDI entry in the data set with CYP enzyme is “no”. In data set [1], the IC50 stood at 10.7 ± 2.59 nM and the “inhibitory activity” value is “better inhibitory activity against the MM.1S cell line than the positive (+)-JQ1”. For the same compound, at BRD4 (I), the half-maximal inhibitory concentration (IC50) came to 15.7 nM. In addition, in data set [2], the “HLM Clint” value is 22 µL/min/mg and the “HLM t1/2” value was 1.03 h. In data set [3], the “MLM t1/2” value was 1.78 h and the “mLM Clint” value was 13 µL/min/mg. In addition, at 3A4, the “Direct inhibition rate (%) 3A4, first value” is 7% and the “Direct inhibition rate (%) 3A4, second value” stood at 12%.

In the case of `Cc1ccc(-n2nc(C(=O)N3CCN(C)CC3)nc2-c2ccc3c(c2)N(C2CC2)C(C)C(=O)N3C)c(C)c1` (centres unmarked) [Example 34], the half-maximal inhibitory concentration (IC50) in data set [1] (Homo sapiens, MM1.S) was 9.11 ± 2.91 nM; at BRD4 (I), 13.9 nM. The “inhibitory activity” value in data set [1] is on record as “better inhibitory activity against the MM.1S cell line than the positive (+)-JQ1”.

For the compound `CCN1CCN(C(=O)c2nc(-c3ccc4c(c3)N(C3CC3)C(C)C(=O)N4C)n(-c3ccc(C)cc3C)n2)CC1` (centres unmarked) [Example 35], the concentration for half-maximal inhibition (IC50) in data set [1] (Homo sapiens, MM1.S) is 15.5 ± 7.42 nM; on BRD4 (I), 14.5 nM. The “inhibitory activity” value in data set [1] is “better inhibitory activity against the MM.1S cell line than the positive (+)-JQ1”.

Turning to `Cc1ccc(-n2nc(C(=O)N3C[C@@H](C)N[C@@H](C)C3)nc2-c2ccc3c(c2)N(C2CC2)C(C)C(=O)N3C)cc1` (some centres unmarked) [Example 36], the IC50 in data set [1] (Homo sapiens, MM1.S) worked out at 3.13 nM; at BRD4 (I) it was 18.5 nM. Further, in [1], the “inhibitory activity” value is given as “better inhibitory activity against the MM.1S cell line than the positive (+)-JQ1”.

With `Cc1ccc(-n2nc(C(=O)N3C[C@@H](C)N[C@@H](C)C3)nc2-c2ccc3c(c2)N(C(C)C)[C@H](C)C(=O)N3C)cc1` [Example 37], the concentration for half-maximal inhibition (IC50) was 18.2 nM in [1] (Homo sapiens, MM1.S) and 15.1 nM at BRD4 (I). Further, in data set [1], the “inhibitory activity” value was “better inhibitory activity against the MM.1S cell line than the positive (+)-JQ1”.

These data come from patent publication US11078188B2, “Dihydroquinoxaline bromodomain recognition protein inhibitor, preparation method and use thereof” (SHANGHAI INSTITUTE OF MATERIA MEDICA, CHINESE ACADEMY OF …, priority 2017, dated 2021).
